Results from patent publication EP2127664A1, “Change of the load state of MHC molecules by dipeptides” (priority 2008, dated 2009).
“Also recorded” adds a separate entry of the source. Peptide text beside a SMILES is read from it.

Tests used:
[1] = target: T1, soluble HLA-DR1 (DRA*0101, DRB1*0101) (Homo sapiens, UniProt P01903+P01911, A100R/D57E/F55L/F60I/F76Y/I96L/L162R/M171V/P40L/Q125E/R42F/V115G/Y59C); assay: Peptide loading of soluble HLA-DR1 with HA306-318 (ELISA); assay type: biochemical; details: for complex formation between HA306-318 and soluble HLA-DR1 (catalytic activity): titrated amounts of dipeptide, 100nM HLA-DR1, phosphate-buffered saline pH 7.4, 37 °C, 1 h; for catalytic rate enhancement: mean activity, soluble HLA-DR1 (DRB1*0101)
T1 construct: Recombinant soluble HLA-DR1 (DRA*0101, DRB1*0101) (Sloan, V. S (1995) Nature 375, 802-806) was produced in S2 insect cells; made in house; host or cells: S2 insect cells
Text: Antibodies and soluble HLA-DR1. The HLA-DR-specific antibody L243 (ATCC) was purified.

[2] = test system: HLA-DR1 restricted mouse T cell hybridoma EvHA/X5; assay: In vitro T cell assay with HA306-318 and peptide-MLE; assay type: cell-based
Text: (§1) Cells. Stable transfection of L929 fibroblasts (ATCC) were done to generate L101 (DRB1*0101 b86 G) or L101 (β86V) respectively (Höpner et al., (2006), supra). Epstein-Barr virus-transformed B cell 721.221(DRB1*0101) was obtained from ATCC. EvHA/X5 (DRB1*0101-restricted, HA306-318-specific) were derived from HLA-DR1tg mice (Rosloniec, E. F. (1997) J. Exp. Med. 185, 1113-1122) and were generated after fusion of the CD4+ EvHA T cell line with the BW cell (Höpner et al., (2006), supra). CD4+ T cell line PD2 , HLA-DR1 restricted and HA 306-318 specific (Falk K, et al., (2000) Eur. J. Immunol. 30, 3012-3020), ABL 908-922-specific T cell hybridoma SaABL/G2 was generated after fusing a CD4+ T cell line generated in HLA-DR1 […] mice with the BW cell.
(§2) T cell Assays. For pulse wash experiments 5x 10^4 HLA-DR-expressing cells/well were loaded for 4 h with antigenic peptides in the presence and absence of dipeptides as described above. Cells were then washed, and 5x10^4 T cells were added to the culture, which was then incubated for 24 h in Dulbecco's modified Eagle's medium, 5% fetal calf serum in 96-well U-bottom plates. However for permanent assay, HLA-DR expressing cells, T cells and dipeptide stayed together in the reaction for 48 hrs. T cell response was determined in a secondary assay with CTL-L cells (ATCC) as described previously (Falk, K., (2002) J. Biol. Chem. 277, 2709-2715). In experiments with PD-2 cell line, HTR's (as APCs) were pre-irradiated for 520 sec and then used for experiments.

human T cell line PD2 = assay: as above; assay type: cell-based
Text: as §1, §2

CLIP/HLA-DR1 complex = target: T2, CLIP/HLA-DR1 complex (Homo sapiens, UniProt P01903+P01911, A100R/D57E/F55L/F60I/F76Y/I96L/L162R/M171V/P40L/Q125E/R42F/V115G/Y59C); assay: Ligand exchange / complex dissociation of CLIP/HLA-DR1 (ELISA); assay type: biochemical; details: 10 mM dipeptide; in the presence of free HA306-318
T2 construct: soluble class II MHC molecules were preloaded with the CLIP peptide; made in house; host or cells: S2 insect cells
Experimental: Ligand-exchange of soluble HLA-DR molecules- In vitro ligand exchange experiments were carried out by loading 1,5 µM of HLA-DR1 with biotinylated IC106-120, for 20 hrs (Höpner et al., (2006), supra) in presence of 5% ethanol. HLA-DR1:IC complex was diluted to 1:15 and incubated with 200µg/ml HA peptide in presence and absence of 10mM dipeptide.

[3] = test system: CD4+ T cell hybridoma specific for the ABL epitope (SaABL/G5); assay: T cell assay, ABL908-922-loaded fibroblasts expressing HLA-DR1 (β86G→V); assay type: cell-based, mice; details: fibroblasts with mutated HLA-DR1 (β86G→V) loaded in the presence of dipeptides
Text: as §1
as §2, with “In experiments with PD-2 cell line, HTR's (as APCs) were pre-irradiated for 520 sec and then used for experiments.” left out

[4] = target: T3, fibroblast cells transfected with mutated HLA-DR1 (β86G→V) (Homo sapiens, UniProt P01903+P01911, A100R/D57E/F55L/F60I/F76Y/I96L/L162R/M171V/P40L/Q125E/R42F/Y59C); assay: Peptide loading of cell surface MHC molecules with ABL908-922 (FACS); assay type: cell-based; details: fibroblasts expressing HLA-DR1 (β86G→V)
T3 construct: transfected with full length versions of wt HLA-DR1 (β86G) and mutated HLA-DR1 (β86G→V); expressed in transfected cells
Text: as §1
Peptide Loading of Cell Surface MHC Molecules. For loading experiments biotinylated antigenic peptides were incubated with 10 x 10^4 HLA-DR expressing cells/well in presence and absence of dipeptides at 37 °C in Dulbecco's modified Eagle's medium, 5% fetal calf serum in a 96 well V bottom plate for 4 hrs. FACS analysis was done as described previously (Höpner et al., (2006), supra).

HLA-DR1 (β86G→V) = target: T4, HLA-DR1 (β86G→V) (Homo sapiens, UniProt P01903+P01911, A100R/D57E/F55L/F60I/F76Y/I96L/L162R/M171V/P40L/Q125E/R42F/Y59C); assay: Loading of soluble mutated HLA-DR1 with ABL908-922 (ELISA); assay type: biochemical; details: titrated amounts of dipeptide
T4 construct: Recombinant soluble HLA-DR1 molecules were mutated at position 86; made in house; host or cells: S2 insect cells (printed for the recombinant soluble HLA-DR1; not repeated for the mutants)
Experimental: Peptide loading/ of Soluble HLA-DR Molecules- For in vitro loading experiments 100nM HLA-DR1 was incubated with 40 µg/ml (phosphate-buffered saline, pH 7.4, 37 °C, 1 h).

[5] = in the presence of Ac-FR-NH2 (5 mM per Fig. 5 legend)
[6] = in the absence of the dipeptide catalyst

## C[C@H](N)C(=O)N[C@@H](CCCNC(=N)N)C(=O)O [AR] (H-Ala-Arg-OH)
[1]
  complex formation between HA306-318 and soluble HLA-DR1 (catalytic activity): No effect

## CC(=O)N[C@@H](C)C(=O)N[C@@H](CCCNC(=N)N)C(N)=O [Ac-AR-NH2] (Ac-Ala-Arg-NH2)
[1]
  complex formation between HA306-318 and soluble HLA-DR1 (catalytic activity): completely inactive; also recorded: abrogated the effect

## CC(=O)N[C@@H](CCC(=O)O)C(=O)N[C@@H](CCCNC(=N)N)C(N)=O [Ac-ER-NH2] (Ac-Glu-Arg-NH2)
[1]
  complex formation between HA306-318 and soluble HLA-DR1 (catalytic activity): No enhancement; also recorded: abrogated the effect

## CC(=O)N[C@@H](Cc1ccccc1)C(=O)N[C@@H](CCCNC(=N)N)C(N)=O [Ac-FR-NH2] (Ac-Phe-Arg-NH2)
[1]; in the presence of 1 mM
  on-rate is amplified by a factor of: 7.08
[1]
  catalytic rate enhancement: 6.08 mM⁻¹
[2]; [5]
  half-maximal response (concentration of HA306-318): 0.65 ng/mL
Human T cell line PD2; [5]
  half-maximal response (concentration of HA306-318): 0.23 ng/mL

## CC(=O)N[C@@H](CC(C)C)C(=O)N[C@@H](CCCNC(=N)N)C(N)=O [Ac-LR-NH2]
CLIP/HLA-DR1 complex
  complex dissociation of CLIP/HLA-DR1: weaker dissociation
[3]
  ABL908-922-specific T cell stimulation: most efficient ABL908-922-specific stimulation
[2]; compared with Ac-FR-NH2
  effect on the HA306-318-specific T cell response: weaker effects
Human T cell line PD2; compared with Ac-FR-NH2
  effect on the HA306-318-specific T cell response: weaker effects
[4]
  loading of cells with ABL908-922 determined by FACS: most effective
HLA-DR1 (β86G→V)
  enhancement of ABL908-922 loading: best enhancement

## CC(=O)N[C@@H](Cc1c[nH]c2ccccc12)C(=O)N[C@@H](CCCNC(=N)N)C(N)=O [Ac-WR-NH2] (Ac-Trp-Arg-NH2)
[1]
  catalytic rate enhancement: 3.54 mM⁻¹

## CC(=O)N[C@@H](Cc1ccc(O)cc1)C(=O)N[C@@H](CCCNC(=N)N)C(N)=O [Ac-YR-NH2]
CLIP/HLA-DR1 complex
  complex dissociation of CLIP/HLA-DR1: weaker dissociation
[1]; complex formation between HA306-318 and HLA-DR1
  increase in the catalytic activity compared to the unmodified YR peptide: more than 10 fold
[1]
  catalytic rate enhancement: 3.39 mM⁻¹

## CC(=O)N[C@@H](Cc1ccc(O)cc1)C(=O)N[C@@H](CCCNC(=N)N)C(=O)O [Ac-YR]
[1]
  complex formation between HA306-318 and soluble HLA-DR1 (catalytic activity): partial effect

## N=C(N)NCCC[C@H](NC(=O)[C@@H](N)Cc1ccc(O)cc1)C(N)=O [YR-NH2]
[1]
  complex formation between HA306-318 and soluble HLA-DR1 (catalytic activity): partial effect

## N=C(N)NCCC[C@H](NC(=O)[C@@H](N)Cc1ccc(O)cc1)C(=O)O [YR]
[1]
  complex formation between HA306-318 and soluble HLA-DR1 (catalytic activity): accelerated the MHC-loading with the HA306-318 peptide in a dose-dependent way

## HA306-318: high-affinity peptide ligand / antigen HA306-318 (PKYVKQNTLKLAT) [reference compound]
[2]; [6]
  half-maximal response (concentration of HA306-318): 31 ng/mL
Human T cell line PD2; [6]
  half-maximal response (concentration of HA306-318): 14 ng/mL
